Measured values reported in patent publication US8003649B2 (AstraZeneca AB, priority 2007, dated 2011).

Biological target: T1, Androgen Receptor (AR) (Homo sapiens, UniProt P10275, T878A)
T1 construct: cell based immuno-fluorescence assay using the LNCaP prostate epithelial cell line; endogenous in cells; host or cells: LNCaP clone FGC (ATCC CRL-1740)
T1 sequence (P10275 1-920 T878A): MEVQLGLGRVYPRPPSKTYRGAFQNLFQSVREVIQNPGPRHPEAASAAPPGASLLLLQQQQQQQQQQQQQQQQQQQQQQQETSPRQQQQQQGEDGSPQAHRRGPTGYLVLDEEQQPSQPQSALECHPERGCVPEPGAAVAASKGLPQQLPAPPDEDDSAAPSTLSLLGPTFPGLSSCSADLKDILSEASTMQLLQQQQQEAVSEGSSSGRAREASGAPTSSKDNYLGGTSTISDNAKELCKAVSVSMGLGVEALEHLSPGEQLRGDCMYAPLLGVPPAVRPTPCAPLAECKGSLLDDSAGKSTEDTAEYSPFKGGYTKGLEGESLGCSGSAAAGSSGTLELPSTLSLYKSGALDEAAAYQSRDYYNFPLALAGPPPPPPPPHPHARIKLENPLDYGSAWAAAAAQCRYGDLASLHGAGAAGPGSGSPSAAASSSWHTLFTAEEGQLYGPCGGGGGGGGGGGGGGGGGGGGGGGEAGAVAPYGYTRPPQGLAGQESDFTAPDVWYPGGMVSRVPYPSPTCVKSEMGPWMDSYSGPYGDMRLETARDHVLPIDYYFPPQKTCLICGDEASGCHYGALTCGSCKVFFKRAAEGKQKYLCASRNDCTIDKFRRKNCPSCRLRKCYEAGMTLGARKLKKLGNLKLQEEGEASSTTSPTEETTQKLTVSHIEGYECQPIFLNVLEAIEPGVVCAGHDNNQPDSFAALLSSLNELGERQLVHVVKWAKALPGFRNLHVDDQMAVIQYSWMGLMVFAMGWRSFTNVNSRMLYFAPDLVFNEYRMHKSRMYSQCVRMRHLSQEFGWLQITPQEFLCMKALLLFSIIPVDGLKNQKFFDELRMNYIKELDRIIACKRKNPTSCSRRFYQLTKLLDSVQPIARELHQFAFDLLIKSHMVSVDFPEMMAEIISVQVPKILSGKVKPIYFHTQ
Test: LNCaP Androgen Receptor Down-regulation Cell Assay (immunofluorescence end point)
Format: cell-based
Settings: LNCaP prostate carcinoma cells, compound incubation 20-22 hours, 50% reduction of the AR signal; read-out: Androgen Receptor Down-regulation Assay (a) IC50/μM
In short: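 AR loss reported as IC50 from curve fits of fluorescence dose-response data, with AR immunostained and read by laser-scanning cytometry. Compound exposure was 20-22 h at 37° C in LNCaP cells grown in 5% charcoal-stripped FBS and plated overnight beforehand.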

DC50 | SMILES
2.9 µM | Fc1cccc(F)c1CN1CCN(c2ccc3nnc(C(F)(F)F)n3n2)CC1 [Example 384]
2.1 µM | COc1ccc(CN2CCN(c3ccc4nnc(C(F)(F)F)n4n3)CC2)c(F)c1 [Example 385]
2.4 µM | Fc1ccc(F)c(CN2CCN(c3ccc4nnc(C(F)(F)F)n4n3)CC2)c1 [Example 386]
1.6 µM | COc1ccc(CN2CCN(c3ccc4nnc(C(F)(F)F)n4n3)CC2)cc1F [Example 388]
1.5 µM | N#Cc1ccc(CN2CCN(c3ccc4nnc(C(F)(F)F)n4n3)CC2)c(F)c1 [Example 389]
1.7 µM | COc1ccc(F)c(CN2CCN(c3ccc4nnc(C(F)(F)F)n4n3)CC2)c1 [Example 390]
2.7 µM | Fc1cc(F)cc(CN2CCN(c3ccc4nnc(C(F)(F)F)n4n3)CC2)c1 [Example 391]
5.6 µM | O=S(=O)(c1ccc2ccccc2c1)N1CCN(c2ccc3nnc(C(F)(F)F)n3n2)CC1 [Example 394, 6-[4-(naphthalen-2-ylsulfonyl)piperazin-1-yl]-3-(trifluoromethyl)[1,2,4]triazolo[4,3-b]pyridazine]
1.8 µM | COc1cccc(S(=O)(=O)N2CCN(c3ccc4nnc(C(F)(F)F)n4n3)CC2)c1 [Example 396]
3.9 µM | COc1ccccc1S(=O)(=O)N1CCN(c2ccc3nnc(C(F)(F)F)n3n2)CC1 [Example 397]
1.9 µM | COc1ccc(S(=O)(=O)N2CCN(c3ccc4nnc(C(F)(F)F)n4n3)CC2)cc1 [Example 398]
3.7 µM | COc1ccc(OC)c(S(=O)(=O)N2CCN(c3ccc4nnc(C(F)(F)F)n4n3)CC2)c1 [Example 399]
4.8 µM | N#Cc1ccccc1S(=O)(=O)N1CCN(c2ccc3nnc(C(F)(F)F)n3n2)CC1 [Example 403]
2.7 µM | COc1ccc(S(=O)(=O)N2CCN(c3ccc4nnc(C(F)(F)F)n4n3)CC2)c(OC)c1 [Example 404]
3 µM | O=S(=O)(c1ccc(F)cc1)N1CCN(c2ccc3nnc(C(F)(F)F)n3n2)CC1 [Example 405]
6.3 µM | CN(Cc1cccnc1)C1CCN(c2ccc3nnc(C(F)(F)F)n3n2)CC1 [Example 406, N-methyl-N-(pyridin-3-ylmethyl)-1-[3-(trifluoromethyl)[1,2,4]triazolo[4,3-b]pyridazin-6-yl]piperidin-4-amine]
5.7 µM | CN(Cc1ccc(F)cc1)C1CCN(c2ccc3nnc(C(F)(F)F)n3n2)CC1 [Example 407]
1.7 µM | CN(Cc1ccc(F)c(F)c1)C1CCN(c2ccc3nnc(C(F)(F)F)n3n2)CC1 [Example 408]
3.9 µM | CN(Cc1ccc(C#N)cc1)C1CCN(c2ccc3nnc(C(F)(F)F)n3n2)CC1 [Example 409]
2.1 µM | CN(Cc1cc(F)cc(F)c1)C1CCN(c2ccc3nnc(C(F)(F)F)n3n2)CC1 [Example 410]

DC50 | SMILES
2.2 µM | CN(Cc1ccc(F)c(C#N)c1)C1CCN(c2ccc3nnc(C(F)(F)F)n3n2)CC1 [Example 411]
9.1 µM | CN(CCO)C(=O)c1ccc(OC2CCN(c3ccc4nnc(C(F)(F)F)n4n3)CC2)cc1 [Example 412, N-(2-hydroxyethyl)-N-methyl-4-[[1-[3-(trifluoromethyl)-[1,2,4]triazolo[4,3-b]pyridazin-6-yl]piperidin-4-yl]oxy]benzamide]
1.9 µM | O=C(NCCN1CCCC1)c1ccc(OC2CCN(c3ccc4nnc(C(F)(F)F)n4n3)CC2)cc1 [Example 413]
> 10 µM | CN1CCN(C(=O)c2ccc(OC3CCN(c4ccc5nnc(C(F)(F)F)n5n4)CC3)cc2)CC1 [Example 414]
2.7 µM | COCCNC(=O)c1ccc(OC2CCN(c3ccc4nnc(C(F)(F)F)n4n3)CC2)cc1 [Example 416]
4.6 µM | CN(C)C(=O)c1ccc(OC2CCN(c3ccc4nnc(C(F)(F)F)n4n3)CC2)cc1 [Example 417]
> 14 µM | O=C(c1ccc(OC2CCN(c3ccc4nnc(C(F)(F)F)n4n3)CC2)cc1)N1CC[C@@H](O)C1 [Example 418]
5.9 µM | O=C(c1ccc(OC2CCN(c3ccc4nnc(C(F)(F)F)n4n3)CC2)cc1)N1CCOCC1 [Example 420]
2.2 µM | O=C(NCCN1CCOCC1)c1ccc(OC2CCN(c3ccc4nnc(C(F)(F)F)n4n3)CC2)cc1 [Example 424]
3.6 µM | COCCN(C)C(=O)c1ccc(OC2CCN(c3ccc4nnc(C(F)(F)F)n4n3)CC2)cc1 [Example 425]
4.3 µM | CN1CCC(NC(=O)c2ccc(OC3CCN(c4ccc5nnc(C(F)(F)F)n5n4)CC3)cc2)CC1 [Example 427]
2.6 µM | CN(C)CCNC(=O)c1ccc(OC2CCN(c3ccc4nnc(C(F)(F)F)n4n3)CC2)cc1 [Example 429]
1.7 µM | CN(C)CCCOc1ccc(OC2CCN(c3ccc4nnc(C(F)(F)F)n4n3)CC2)cc1 [Example 430, N,N-dimethyl-3-[4-[[1-[3-(trifluoromethyl)-[1,2,4]triazolo[4,3-b]pyridazin-6-yl]piperidin-4-yl]oxy]phenoxy]propan-1-amine]
1.5 µM | FC(F)(F)c1nnc2ccc(N3CCC(Oc4ccc(OCCN5CCCC5)cc4)CC3)nn12 [Example 431]
0.9 µM | FC(F)(F)c1nnc2ccc(N3CCC(Oc4ccc(OCCCN5CCNCC5)cc4)CC3)nn12 [Example 433]
0.98 µM | CN(C)CCOc1ccc(OC2CCN(c3ccc4nnc(C(F)(F)F)n4n3)CC2)cc1 [Example 435]
0.75 µM | CN1CCC(Oc2ccc(OC3CCN(c4ccc5nnc(C(F)(F)F)n5n4)CC3)cc2)CC1 [Example 436]
0.53 µM | CN1CCN(CCCOc2ccc(OC3CCN(c4ccc5nnc(C(F)(F)F)n5n4)CC3)cc2)CC1 [Example 437]
1.6 µM | FC(F)(F)c1nnc2ccc(N3CCC(Oc4ccc(OCc5ccon5)cc4)CC3)nn12 [Example 438]
0.48 µM | FC(F)(F)c1nnc2ccc(N3CCC(Oc4ccc(OCc5cnco5)cc4)CC3)nn12 [Example 439]

DC50 | SMILES
2.3 µM | CN1CCN(CCOc2ccc(OC3CCN(c4ccc5nnc(C(F)(F)F)n5n4)CC3)cc2)CC1 [Example 440]
0.22 µM | Cn1nccc1CCOc1ccc(OC2CCN(c3ccc4nnc(C(F)(F)F)n4n3)CC2)cc1 [Example 441]
0.44 µM | Cn1nccc1COc1ccc(OC2CCN(c3ccc4nnc(C(F)(F)F)n4n3)CC2)cc1 [Example 442]
1.5 µM | CN(C)CCCOc1cccc(OC2CCN(c3ccc4nnc(C(F)(F)F)n4n3)CC2)c1 [Example 443]
1.6 µM | FC(F)(F)c1nnc2ccc(N3CCC(Oc4cccc(OCCCN5CCNCC5)c4)CC3)nn12 [Example 445]
0.7 µM | Cc1cc(COc2cccc(OC3CCN(c4ccc5nnc(C(F)(F)F)n5n4)CC3)c2)no1 [Example 446]
6.3 µM | N#Cc1ccc(OC2CCN(c3ccc4nnc(C(F)(F)F)n4n3)CC2)cn1 [Example 448, 5-[[1-[3-(trifluoromethyl)-[1,2,4]triazolo[4,3-b]pyridazin-6-yl]piperidin-4-yl]oxy]pyridine-2-carbonitrile]
4.8 µM | N#Cc1cc(OC2CCN(c3ccc4nnc(C(F)(F)F)n4n3)CC2)ccn1 [Example 449, 4-[[1-[3-(trifluoromethyl)[1,2,4]triazolo[4,3-b]pyridazin-6-yl]piperidin-4-yl]oxy]pyridine-2-carbonitrile]
5.7 µM | O=S(=O)(c1ccc(F)cc1)N1CC2CN(c3ccc4nnc(C(F)(F)F)n4n3)CC2C1 (centres unmarked) [Example 453]
9.2 µM | COc1cccc(S(=O)(=O)N2CC3CN(c4ccc5nnc(C(F)(F)F)n5n4)CC3C2)c1 (centres unmarked) [Example 454]
21 µM | O=S(=O)(c1cccc(F)c1)N1CCCN(c2ccc3nnc(C(F)(F)F)n3n2)CC1 [Example 456]
5.1 µM | O=S(=O)(c1ccccc1F)N1CCCN(c2ccc3nnc(C(F)(F)F)n3n2)CC1 [Example 460]
7.7 µM | COc1ccccc1OCC1CCN(c2ccc3nnc(C(F)(F)F)n3n2)CC1 [Example 462]
0.98 µM | Fc1ccc(OCC2CCN(c3ccc4nnc(C(F)(F)F)n4n3)CC2)cc1 [Example 463]
1.4 µM | Fc1cccc(OCC2CCN(c3ccc4nnc(C(F)(F)F)n4n3)CC2)c1 [Example 464]
> 19 µM | COc1cccc(OCC2CCN(c3ccc4nnc(C(F)(F)F)n4n3)CC2)c1 [Example 466]
4.9 µM | Fc1ccccc1OCC1CCN(c2ccc3nnc(C(F)(F)F)n3n2)CC1 [Example 467]
> 11 µM | FC(F)(F)c1ccc(OCC2CCN(c3ccc4nnc(C(F)(F)F)n4n3)CC2)cc1 [Example 468]
1.8 µM | N#Cc1ccccc1OCC1CCN(c2ccc3nnc(C(F)(F)F)n3n2)CC1 [Example 469]
